Measured values published in publication PMC7377239, “Cardiovascular Effects of Polychlorinated Biphenyls and Their Major Metabolites” (Environmental Health Perspectives, 2020).
Read-outs that look alike come from different tables or passages of the source.

System: iCell cardiomyocytes (human iPSC-derived cardiomyocytes)
Experiment: Intracellular Ca2+ flux / beating parameters in iCell cardiomyocytes (FLIPR tetra), 90 min or 24 h
Assay type: cell-based
Settings: Homo sapiens, Cardiomyocyte, 0.00 µM = 100.00; for activity at 0.1 µM: 0.10 µM
Summary of the method: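 Gelatin-plated iCell cardiomyocytes (5,000/well) were dye-loaded for 2 h at 37 °C, then exposed for 90 min or 24 h to PCBs/metabolites (5× plates at 0.05–500 µM; 0.5% DMSO final) in triplicate. Ca2+ flux was read for 100 s at 8 Hz and 37 °C. Peak height, frequency, spacing CV and decay/rise ratio were vehicle-normalized and fitted with a four-parameter logistic model, with POD set at 1 SD of vehicle.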

[1] = 1.5 h, 90min, read-out: cm.amp.avg.90min
[2] = 1.5 h, 90min, read-out: cm.amp.cv.90min
[3] = 1.5 h, 90min, read-out: cm.bpm.90min
[4] = 1.5 h, 90min, read-out: cm.decay.rise.90min
[5] = 1.5 h, 90min, read-out: cm.spacing.cv.90min
[6] = 24 h, 24hrs, read-out: cm.amp.avg.24hrs
[7] = 24 h, 24hrs, read-out: cm.amp.cv.24hrs
[8] = 24 h, 24hrs, read-out: cm.bpm.24hrs
[9] = 24 h, 24hrs, read-out: cm.decay.rise.24hrs
[10] = 24 h, 24hrs, read-out: cm.spacing.cv.24hrs

`Clc1ccc(-c2cc(Cl)c(Cl)c(Cl)c2)cc1Cl` [PCB126] was tested, and the activity at 0.01 µM [1] was 100%, the activity at 0.01 µM [2] was 110% and the activity at 0.01 µM [3] was 107%. The activity at 0.01 µM [4] was 102%, the activity at 0.01 µM [5] was 135% and the activity at 0.1 µM [1] was 102%. The activity at 0.1 µM [2] was 139%, the activity at 0.1 µM [3] was 97.8% and the activity at 0.1 µM [4] was 99.8%. For the same compound, the activity at 0.1 µM [5] was 119%, the activity at 1 µM [1] was 102% and the activity at 1 µM [2] was 114%. The activity at 1 µM [3] was 105%, the activity at 1 µM [4] was 96% and the activity at 1 µM [5] was 115%. For the same compound, the activity at 10 µM [1] was 90.3%, the activity at 10 µM [2] was 363% and the activity at 10 µM [3] was 128%. It also gave an activity at 10 µM [4] of 83%, an activity at 100 µM [1] of 117% and an activity at 100 µM [2] of 120%. The activity at 100 µM [3] was 135%, the activity at 100 µM [4] was 86.2% and the activity at 100 µM [5] was 106%. For the same compound, the activity at 0.01 µM [6] was 73.3%, the activity at 0.01 µM [7] was 143% and the activity at 0.01 µM [8] was 100%. The activity at 0.01 µM [9] was 101%, the activity at 0.01 µM [10] was 122% and the activity at 0.1 µM [6] was 79.8%. It also gave an activity at 0.1 µM [7] of 120%, an activity at 0.1 µM [8] of 100% and an activity at 0.1 µM [9] of 109%. It also gave an activity at 0.1 µM [10] of 117%, an activity at 1 µM [6] of 72.2% and an activity at 1 µM [7] of 128%. The activity at 1 µM [8] was 104%, the activity at 1 µM [9] was 97.6% and the activity at 1 µM [10] was 113%. It also gave an activity at 10 µM [6] of 78.8%, an activity at 10 µM [7] of 38.8% and an activity at 10 µM [8] of 68.7%. The activity at 10 µM [9] was 50%, the activity at 10 µM [10] was 66.1% and the activity at 100 µM [6] was 20.9%. It also gave an activity at 100 µM [7] of 121%, an activity at 100 µM [8] of 70.6% and an activity at 100 µM [9] of 29.1%. For the same compound, the activity at 100 µM [10] was 81%.
